In brackets after ≈: the same amount, converted by molar mass. Like-named read-outs stand apart in the source and are kept apart here.
What was measured:
[1] = test system: S. aureus Clinical Isolates; assay: In vitro activity against clinical isolates, sixth test, Table 7; assay type: cell-based; settings: Staphylococcus aureus, 49 isolates
[2] = test system: S. pneumoniae Clinical Isolates; assay: as above; assay type: cell-based; settings: 78 isolates
[3] = test system: Methicillin-Resistant S. aureus Isolates; assay: In vitro anti-bacterial activity, fourth test, Table 5; assay type: cell-based, Staphylococcus aureus; settings: Staphylococcus aureus, read-out: MIC90
Experimental: In a fourth test, the anti-bacterial activity of the compound having Formula IV was tested against some methicillin-resistant S. aureus bacteria strains and compared to the anti-bacterial activity of three commercially available antibiotics: nadifloxacin (“NDFX”), ofloxacin (“OFLX”), and sparfloxacin (“SPFX”).

GM-resistant S. aureus = assay: MIC90, agar plate dilution method (NCCLS), Table 2; assay type: cell-based; settings: Staphylococcus aureus, 10 isolates
Experimental: (§1) The MIC90 values for this test were determined by the agar plate dilution method according to the National Committee for Clinical Laboratory Standards (“NCCLS”).

OFLX-resistant S. aureus = assay: MIC90, agar plate dilution method (NCCLS), Table 2; assay type: cell-based; settings: Staphylococcus aureus, 10 isolates
Experimental: as §1

[4] = test system: APC-resistant Haemophilus influenza.; assay: MIC90, agar plate dilution method (NCCLS), Table 2; assay type: cell-based; settings: for MIC90: Haemophilus
Experimental: as §1

[5] = test system: OFLX-resistant Enterobacteriaceae; assay: MIC90, agar plate dilution method (NCCLS), Table 2; assay type: cell-based
Experimental: as §1

[6] = test system: GM-resistant P. aeruginosa; assay: MIC90, agar plate dilution method (NCCLS), Table 2; assay type: cell-based; settings: 10 isolates; for MIC90: Pseudomonas aeruginosa
Experimental: as §1

[7] = test system: PCG-resistant S. pneumoniae; assay: MIC90, agar plate dilution method (NCCLS), Table 2; assay type: cell-based; settings: 10 isolates; for MIC90: Streptococcus pneumoniae
Experimental: as §1

[8] = test system: Ofloxacin-resistant Enterobacteriaceae; assay: organism not typed; assay type: cell-based
From the text: (§2) As disclosed above, most of these bacteria strains are also relevant to infections of the ear and upper respiratory tract.

[9] = test system: Penicillin-resistant Streptococcus pneumoniae; assay: In vitro anti-bacterial activity, resistant clinical isolates, fifth test, Table 6; assay type: cell-based; settings: read-out: MIC90
From the text: as §2

[10] = test system: Gentamicin-resistant Pseudomonas aeruginosa; assay: as above; assay type: cell-based; settings: read-out: MIC90
From the text: as §2

[11] = test system: Ofloxacin-resistant Staphylococcus aureus; assay: as above; assay type: cell-based; settings: read-out: MIC90
From the text: as §2

[12] = test system: Gentamicin-resistant Staphylococcus aureus; assay: as above; assay type: cell-based; settings: read-out: MIC90
From the text: as §2

[13] = test system: methicillin-resistant S. aureus; assay: MIC90, Japanese Society of Chemotherapy guidelines (1993), Table 3; assay type: cell-based; settings: Staphylococcus aureus, read-out: MIC90
Experimental: (§3) In a second test, compounds having Formulae IV and V, their racemic mixture, and OFLX were tested in vitro against S. aureus strains that are resistant to methicillin or penicillin. The test was conducted according to the guidelines of the Japanese Society of Chemotherapy (1993).

[14] = test system: penicillin-resistant S. aureus; assay: as above; assay type: cell-based; settings: Staphylococcus aureus, read-out: MIC90
Experimental: as §3

Structure (SMILES): CC1COc2c(N3CCN(C)CC3)c(F)cc3c(=O)c(C(=O)O)cn1c23 (stereo not drawn) [OFLX, ofloxacin]
- MIC90 [1]: 8 µg/mL (≈ 22.1 µM)
- MIC90 Range [2]: 1 to 2 µg/mL
- MIC90 ([2]; Streptococcus pneumoniae): 1 µg/mL (≈ 2.77 µM)
- MIC90 ([3]; ATCC33591, Staphylococcus aureus (ATCC 33591)): 0.05 µg/mL (≈ 0.138 µM)
- MIC90 ([3]; ATCC33592, Staphylococcus aureus (ATCC 33592)): 0.39 µg/mL (≈ 1.08 µM)
- MIC90 ([3]; ATCC33593, Staphylococcus aureus (ATCC 33593)): 0.2 µg/mL (≈ 0.553 µM)
- MIC90 ([3]; Staphylococcus aureus (No. 395)): 0.2 µg/mL (≈ 0.553 µM)
- MIC90 ([3]; Staphylococcus aureus (No. 415)): 0.78 µg/mL (≈ 2.16 µM)
- MIC90 ([3]; Staphylococcus aureus (No. 419)): 3.13 µg/mL (≈ 8.66 µM)
- MIC90 ([3]; Staphylococcus aureus (No. 420)): 1.56 µg/mL (≈ 4.32 µM)
- MIC90 ([3]; Staphylococcus aureus (No. 421)): 1.56 µg/mL (≈ 4.32 µM)
- MIC90 (GM-resistant S. aureus; read-out: MIC90 Geometric Mean): 16 µg/mL (≈ 44.3 µM)
- MIC90 (GM-resistant S. aureus; read-out: MIC90 Value): > 128 µg/mL
- MIC90 (OFLX-resistant S. aureus; read-out: MIC90 Geometric Mean): 104 µg/mL (≈ 288 µM)
- MIC90 (OFLX-resistant S. aureus; read-out: MIC90 Value): > 128 µg/mL
- MIC90 Range ([4]; APC-resistant Haemophilus influenza., 10 isolates): ≦0.06 μg/ml
- MIC90 ([4]; read-out: MIC90 Geometric Mean): ≤ 0.06 µg/mL
- MIC90 ([4]; read-out: MIC90 Value): ≤ 0.06 µg/mL
- MIC90 Range ([5]; OFLX-resistant Enterobacteriaceae, 10 isolates): 8 to 64 µg/mL
- MIC90 ([5]; read-out: MIC90 Geometric Mean): 21.1 µg/mL (≈ 58.4 µM)
- MIC90 ([5]; read-out: MIC90 Value): 64 µg/mL (≈ 177 µM)
- MIC90 Range [6]: 0.5 to 128 µg/mL
- MIC90 ([6]; read-out: MIC90 Geometric Mean): 6.5 µg/mL (≈ 18 µM)
- MIC90 ([6]; read-out: MIC90 Value): 64 µg/mL (≈ 177 µM)
- MIC90 Range [7]: 1 to 2 µg/mL
- MIC90 ([7]; read-out: MIC90 Geometric Mean): 1.52 µg/mL (≈ 4.21 µM)
- MIC90 ([7]; read-out: MIC90 Value): 2 µg/mL (≈ 5.53 µM)
- MIC90 [8]: 64 µg/mL (≈ 177 µM)
- MIC90 [9]: 2 µg/mL (≈ 5.53 µM)
- MIC90 [10]: 64 µg/mL (≈ 177 µM)
- MIC90 [11]: > 128 µg/mL
- MIC90 [12]: 128 µg/mL (≈ 354 µM)
- MIC90 ([13]; ATCC33591, S. aureus (ATCC 33591)): 0.39 µg/mL (≈ 1.08 µM)
- MIC90 ([13]; ATCC33592, S. aureus (ATCC 33592)): 0.2 µg/mL (≈ 0.553 µM)
- MIC90 ([13]; ATCC33593, S. aureus (ATCC 33593)): 0.2 µg/mL (≈ 0.553 µM)
- MIC90 ([13]; S. aureus (No. 395)): 0.39 µg/mL (≈ 1.08 µM)
- MIC90 ([13]; S. aureus (No. 415)): 0.2 µg/mL (≈ 0.553 µM)
- MIC90 ([13]; S. aureus (No. 419)): 0.39 µg/mL (≈ 1.08 µM)
- MIC90 ([13]; S. aureus (No. 420)): 0.2 µg/mL (≈ 0.553 µM)
- MIC90 ([13]; S. aureus (No. 421)): 0.39 µg/mL (≈ 1.08 µM)
- MIC90 ([14]; ATCC11632, S. aureus (ATCC 11632)): 0.2 µg/mL (≈ 0.553 µM)
- MIC90 ([14]; ATCC13301, S. aureus (ATCC 13301)): 0.2 µg/mL (≈ 0.553 µM)
